The target in test [1] is T1, Prostaglandin G/H synthase 2 (Homo sapiens) (UniProt P35354).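 Note: in vitro assay on recombinant human COX-2 produced in baculovirus-infected Sf9 insect cells.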
T1 sequence (whole entry): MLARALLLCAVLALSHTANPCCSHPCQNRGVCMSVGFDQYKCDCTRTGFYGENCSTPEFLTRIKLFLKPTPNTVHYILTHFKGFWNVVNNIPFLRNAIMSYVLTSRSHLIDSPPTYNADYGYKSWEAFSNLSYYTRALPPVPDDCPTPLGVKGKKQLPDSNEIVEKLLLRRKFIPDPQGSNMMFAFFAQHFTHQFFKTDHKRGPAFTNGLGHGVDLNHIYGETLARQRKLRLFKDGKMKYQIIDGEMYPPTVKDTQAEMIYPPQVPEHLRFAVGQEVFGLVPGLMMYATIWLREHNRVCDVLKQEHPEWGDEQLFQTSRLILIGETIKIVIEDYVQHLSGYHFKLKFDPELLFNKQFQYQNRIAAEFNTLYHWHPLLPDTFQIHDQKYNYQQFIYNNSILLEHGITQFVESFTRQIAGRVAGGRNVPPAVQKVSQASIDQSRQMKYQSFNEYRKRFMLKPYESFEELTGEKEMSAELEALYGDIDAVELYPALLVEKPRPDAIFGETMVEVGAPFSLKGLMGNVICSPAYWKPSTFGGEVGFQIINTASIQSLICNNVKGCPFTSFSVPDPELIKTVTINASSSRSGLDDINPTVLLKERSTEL
Conditions: Sf9; at 10 µM.
Description: In vitro inhibitory activity against human recombinant prostaglandin G/H synthase 2 (COX-2) at 10 uM expressed in sf-9 cells infected with baculovirus

Test [2] addresses T2, Prostaglandin G/H synthase 1 (Ovis aries) (UniProt P05979).
T2 sequence (whole entry): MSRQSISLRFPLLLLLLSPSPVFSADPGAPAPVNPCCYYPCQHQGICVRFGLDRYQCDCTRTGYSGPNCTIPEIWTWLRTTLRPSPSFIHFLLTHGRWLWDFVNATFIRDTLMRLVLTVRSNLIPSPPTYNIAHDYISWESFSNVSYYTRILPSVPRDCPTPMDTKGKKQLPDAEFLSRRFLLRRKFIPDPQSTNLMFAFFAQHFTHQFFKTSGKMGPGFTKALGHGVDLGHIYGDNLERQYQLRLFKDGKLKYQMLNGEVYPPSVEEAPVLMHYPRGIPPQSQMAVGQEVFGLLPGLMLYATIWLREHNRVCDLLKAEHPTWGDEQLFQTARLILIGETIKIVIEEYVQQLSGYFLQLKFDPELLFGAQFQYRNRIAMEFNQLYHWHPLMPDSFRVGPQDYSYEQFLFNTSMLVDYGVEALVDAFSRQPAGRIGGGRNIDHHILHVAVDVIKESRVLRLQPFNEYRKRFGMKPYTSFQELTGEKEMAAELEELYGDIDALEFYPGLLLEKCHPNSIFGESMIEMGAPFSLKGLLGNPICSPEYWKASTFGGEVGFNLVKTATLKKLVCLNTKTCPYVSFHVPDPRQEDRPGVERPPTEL
Conditions: at 10 µM.
Description: In vitro inhibitory activity against prostaglandin G/H synthase 1 (COX-1) from the microsomal fraction of ram seminal vesicles at 10 uM concentration

In test [3] the target is T3, Prostaglandin G/H synthase 1 (Ovis aries, UniProt P05979).
T3 sequence (P05979 whole entry): T2 sequence (whole entry)
Description: In vitro inhibitory activity against prostaglandin G/H synthase 1 from the microsomal fraction of ram seminal vesicles.

Regarding `CS(=O)(=O)N(c1ccc(-c2cc(C(F)(F)F)nn2-c2ccc(Cl)cc2)cc1)S(C)(=O)=O`, the inhibition in test [1] was 13%; in test [2] it was 14%.

For `CS(=O)(=O)Nc1ccc(-c2cc(C(F)F)nn2-c2ccc(S(N)(=O)=O)cc2CO)cc1`, the inhibition in test [1] is 0%; in test [2] it was 100%.

On to `CC(=O)Nc1ccc(-c2cc(C(F)(F)F)nn2-c2ccc(S(N)(=O)=O)cc2CO)cc1`, for which the inhibition worked out at 0% in test [1] and 59% in test [2].

On to `CS(=O)(=O)Nc1ccc(-c2cc(C(F)(F)F)nn2-c2ccc([N+](=O)[O-])cc2)cc1`, for which the inhibition amounted to 0% in test [1] and 34% in test [2].

Consider `CCC(=O)N(c1ccc(-c2cc(C(F)(F)F)nn2-c2ccc(Cl)cc2)cc1)S(C)(=O)=O`, for which the inhibition worked out at 65% in test [1] and 18% in test [2].

Regarding `CS(=O)(=O)Nc1ccc(-c2cc(C(F)(F)F)nn2-c2ccccc2F)cc1`, the inhibition is 89% in test [1] and 97% in test [2].

As for `CC(=O)N(c1ccc(-c2cc(C(F)(F)F)nn2-c2ccc(Cl)cc2)cc1)S(C)(=O)=O`, the figures for the inhibition in test [1] and in test [2] were 63% and 0%, respectively.

For the molecule `CC(=O)Nc1ccc(-c2cc(C(F)(F)F)nn2-c2ccc(Br)cc2)cc1`, the half-inhibitory concentration (IC50) in test [3] turned out to be 3.5 µM. Also, the inhibition amounted to 87% in test [1] and 100% in test [2].

In turn, `CS(=O)(=O)Nc1ccc(-c2cc(C(F)(F)F)nn2-c2ccccc2)cc1` showed an IC50 in test [3] of 85.3 µM. The results for the inhibition in test [1] and in test [2] were 100% and 0%, respectively.

`CS(=O)(=O)Nc1ccc(-c2cc(C(F)F)nn2-c2ccc(Cl)cc2)cc1` displayed an IC50 in test [3] of 63 µM. Further, the figures for the inhibition in test [1] and in test [2] were 100% and 0%, respectively.

For `CS(=O)(=O)Nc1ccc(-c2cc(C(F)F)nn2-c2ccc(F)c(F)c2)cc1`, the inhibition in test [1] came out at 36%; in test [2], 11%.

For the molecule `CC(=O)N(c1ccc(-c2cc(C(F)F)nn2-c2ccc(Cl)cc2)cc1)S(C)(=O)=O`, the values for the inhibition in test [1] and in test [2] were 17% and 66%, respectively.

In test [3], `Cc1cc(-c2ccc(NS(C)(=O)=O)cc2)n(-c2ccc(Br)cc2)n1` registered an IC50 of 63 µM. For the same molecule, the inhibition came out at 100% in test [1] and 10% in test [2].

For `CS(=O)(=O)Nc1ccc(-c2cc(C(F)(F)F)nn2-c2ccc(S(N)(=O)=O)cc2CO)cc1`, the inhibition came out at 12% in test [1] and 42% in test [2].

As for `Cc1cc(-c2ccc(NS(C)(=O)=O)cc2)n(-c2ccccc2)n1`, the values for the inhibition in test [1] and in test [2] were 7% and 34%, respectively.

Turning to `CS(=O)(=O)Nc1ccc(-c2cc(C(F)F)nn2-c2ccccc2)cc1`, the inhibition was 31% in test [1] and 22% in test [2].

Turning to `CS(=O)(=O)Nc1ccc(-c2cc(C(F)(F)F)nn2-c2ccc(F)c(F)c2)cc1`, the figures for the inhibition in test [1] and in test [2] were 59% and 32%, respectively.

In test [3], `Cc1cc(-c2ccc(NS(C)(=O)=O)cc2)n(-c2ccc(Cl)cc2)n1` came in with a 50% inhibitory concentration (IC50) of 100 µM. The inhibition in test [1] came out at 88%; in test [2] it was 0%.

Consider `CS(=O)(=O)Nc1ccc(-c2cc(C(F)(F)F)nn2-c2ccc(Cl)c(Cl)c2)cc1`, for which the inhibition in test [1] was determined as 70%; in test [2], 10%.

For `CS(=O)(=O)Nc1ccc(-c2cc(C(F)F)nn2-c2ccccc2Cl)cc1`, the inhibition in test [1] was determined as 22%; in test [2], 66%.

Turning to `CS(=O)(=O)Nc1ccc(-c2cc(C(F)(F)F)nn2-c2ccc([N+](=O)[O-])cn2)cc1`, the inhibition in test [1] came out at 13%; in test [2], 0%.

Regarding `Cc1cc(-c2ccc(NS(C)(=O)=O)cc2)n(-c2ccc([N+](=O)[O-])cc2)n1`, the figures for the inhibition in test [1] and in test [2] were 0% and 40%, respectively.

In turn, `CS(=O)(=O)Nc1ccc(-c2cc(C(F)(F)F)nn2-c2ccc(N)cc2)cc1` came in with an IC50 in test [3] of 31.6 µM. The inhibition came out at 69% in test [1] and 22% in test [2].

For `CNc1ccc(-n2nc(C(F)(F)F)cc2-c2ccc(NS(C)(=O)=O)cc2)cc1`, the inhibition in test [1] came to 42%; in test [2], 14%.

Regarding `CS(=O)(=O)Nc1ccc(-c2cc(C(F)(F)F)nn2-c2ccc(Br)cc2)cc1`, it took 4.9 µM to reach half-maximal inhibition in test [3] (IC50). In addition, the inhibition in test [1] came to 100%; in test [2], 88%.

In the case of `CS(=O)(=O)Nc1ccc(-c2cc(C(F)F)nn2-c2ccc(Cl)c(Cl)c2)cc1`, the inhibition in test [1] came out at 71%; in test [2], 43%.

Consider `CCC(=O)N(c1ccc(-c2cc(C(F)F)nn2-c2ccc(Cl)cc2)cc1)S(C)(=O)=O`, for which the inhibition was determined as 36% in test [1] and 100% in test [2].

Consider `CS(=O)(=O)Nc1ccc(-c2cc(C(F)(F)F)nn2-c2cccc(Cl)c2)cc1`, for which the results for the inhibition in test [1] and in test [2] were 3% and 96%, respectively.

Molecule `CN(C)c1ccc(-n2nc(C(F)(F)F)cc2-c2ccc(NS(C)(=O)=O)cc2)cc1` returned an IC50 in test [3] of 3.4 µM. The inhibition came to 100% in test [1] and 85% in test [2].

As for `CS(=O)(=O)Nc1ccc(-c2cc(C(F)F)nn2-c2cccc(F)c2)cc1`, the figures for the inhibition in test [1] and in test [2] were 67% and 97%, respectively.

With `CS(=O)(=O)Nc1ccc(-c2cc(C(F)F)nn2-c2ccc(F)cc2)cc1`, the inhibition was determined as 62% in test [1] and 22% in test [2].

As to `CC(=O)Nc1ccc(-c2cc(C)nn2-c2ccc(Br)cc2)cc1`, the IC50 in test [3] was determined as 13.3 µM. Moreover, the values for the inhibition in test [1] and in test [2] were 80% and 9%, respectively.

With `CCCC(=O)N(c1ccc(-c2cc(C(F)F)nn2-c2ccc(Cl)cc2)cc1)S(C)(=O)=O`, the values for the inhibition in test [1] and in test [2] were 42% and 100%, respectively.

For the molecule `CS(=O)(=O)Nc1ccc(-c2cc(C(F)(F)F)nn2-c2cccc(F)c2)cc1`, the inhibition came to 70% in test [1] and 49% in test [2].

On to `Cc1cc(-c2ccc(NS(C)(=O)=O)cc2)n(-c2ccc([N+](=O)[O-])cn2)n1`, for which the figures for the inhibition in test [1] and in test [2] were 13% and 0%, respectively.

`Cc1cc(-c2ccc(NS(C)(=O)=O)cc2)n(-c2ccc(F)cc2)n1`: the values for the inhibition in test [1] and in test [2] were 25% and 0%, respectively.

Turning to `CS(=O)(=O)Nc1ccc(-c2cc(C(F)(F)F)nn2-c2ccc(Cl)cc2)cc1`, the IC50 in test [3] was 15.6 µM. Moreover, the inhibition in test [1] turned out to be 100%; in test [2], 25%.

For the molecule `CS(=O)(=O)Nc1ccc(-c2cc(C(F)F)nn2-c2ccccc2F)cc1`, the inhibition in test [1] was 89%; in test [2] it was 90%.

Turning to `CS(=O)(=O)Nc1ccc(-c2cc(C(F)(F)F)nn2-c2ccc(F)cc2)cc1`, the IC50 in test [3] stood at 20.3 µM. The inhibition in test [1] worked out at 65%; in test [2] it was 6%.

On to `CCCC(=O)N(c1ccc(-c2cc(C(F)(F)F)nn2-c2ccc(Cl)cc2)cc1)S(C)(=O)=O`, for which the results for the inhibition in test [1] and in test [2] were 62% and 0%, respectively.

Take `Cc1ccc(S(=O)(=O)Nc2ccc(-c3cc(C(F)(F)F)nn3-c3ccc(Cl)cc3)cc2)cc1`: the inhibition in test [1] came out at 70%; in test [2] it was 0%.

As a reminder, the inhibition is the drop in the measured response relative to a control, in per cent. One may read the IC50 as the midpoint of a concentration-inhibition curve.
